Assay results reported in ChEMBL document CHEMBL1201862, “PubChem BioAssay data set” (2004).
The source made the active and inactive calls.

Key:
[1] = biological target: T1, Neuropeptide Y receptor type 2 (Homo sapiens, UniProt P49146); format: functional, cell-based;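 further: HEK293 cells expressing the receptor and a CNG channel; stimulus was NPY near EC95 followed by isoproterenol to raise cAMP; antagonist potency measured as restoring cAMP signal that NPY suppresses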
T1 sequence (P49146 whole entry): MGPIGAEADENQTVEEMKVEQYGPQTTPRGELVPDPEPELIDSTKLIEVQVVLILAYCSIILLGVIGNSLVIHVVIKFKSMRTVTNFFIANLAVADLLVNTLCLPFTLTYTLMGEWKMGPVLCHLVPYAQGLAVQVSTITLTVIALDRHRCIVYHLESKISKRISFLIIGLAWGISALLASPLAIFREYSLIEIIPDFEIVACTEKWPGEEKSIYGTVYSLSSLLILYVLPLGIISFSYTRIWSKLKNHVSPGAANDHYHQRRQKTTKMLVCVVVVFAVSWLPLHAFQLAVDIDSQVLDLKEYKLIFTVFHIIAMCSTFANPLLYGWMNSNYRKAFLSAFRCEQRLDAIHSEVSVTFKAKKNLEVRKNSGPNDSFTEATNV

[2] = biological target: T2, Neuropeptide Y receptor type 1 (Homo sapiens, UniProt P25929); format: functional;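 further: HEK293 cells with a CNG channel challenged with NPY then isoproterenol; potency as antagonist that reverses NPY suppression of cAMP signal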
T2 sequence (P25929 whole entry): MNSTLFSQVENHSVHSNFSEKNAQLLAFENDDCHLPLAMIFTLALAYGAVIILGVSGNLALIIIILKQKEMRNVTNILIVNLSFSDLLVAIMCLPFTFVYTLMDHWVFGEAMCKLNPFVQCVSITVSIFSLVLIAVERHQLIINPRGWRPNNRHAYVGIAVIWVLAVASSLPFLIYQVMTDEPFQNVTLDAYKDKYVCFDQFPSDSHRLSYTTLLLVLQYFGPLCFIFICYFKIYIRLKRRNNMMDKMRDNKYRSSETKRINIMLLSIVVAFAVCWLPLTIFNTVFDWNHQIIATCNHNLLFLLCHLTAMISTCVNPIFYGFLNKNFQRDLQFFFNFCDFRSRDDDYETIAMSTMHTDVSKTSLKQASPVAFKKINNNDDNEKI

[3] = biological target: T3, Aspartyl aminopeptidase (Plasmodium falciparum 3D7, UniProt Q8I2J3)
T3 sequence (Q8I2J3 whole entry): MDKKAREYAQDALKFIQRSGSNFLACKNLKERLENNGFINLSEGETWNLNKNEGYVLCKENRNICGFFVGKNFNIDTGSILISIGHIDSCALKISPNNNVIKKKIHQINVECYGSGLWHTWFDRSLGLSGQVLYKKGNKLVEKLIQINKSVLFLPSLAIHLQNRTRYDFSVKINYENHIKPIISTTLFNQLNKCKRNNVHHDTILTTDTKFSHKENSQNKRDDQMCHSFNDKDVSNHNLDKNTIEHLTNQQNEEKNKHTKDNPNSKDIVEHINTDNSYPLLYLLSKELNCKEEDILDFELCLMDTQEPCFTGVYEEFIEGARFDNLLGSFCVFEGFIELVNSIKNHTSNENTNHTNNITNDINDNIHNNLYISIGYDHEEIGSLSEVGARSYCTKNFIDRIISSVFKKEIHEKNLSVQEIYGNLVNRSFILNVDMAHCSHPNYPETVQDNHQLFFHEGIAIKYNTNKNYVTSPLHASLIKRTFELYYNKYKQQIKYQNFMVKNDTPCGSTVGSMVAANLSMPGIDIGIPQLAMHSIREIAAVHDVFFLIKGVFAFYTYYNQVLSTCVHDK

[4] = biological target: T4, Protein skinhead-1 (Caenorhabditis elegans, UniProt P34707); format: functional
T4 sequence (P34707 whole entry): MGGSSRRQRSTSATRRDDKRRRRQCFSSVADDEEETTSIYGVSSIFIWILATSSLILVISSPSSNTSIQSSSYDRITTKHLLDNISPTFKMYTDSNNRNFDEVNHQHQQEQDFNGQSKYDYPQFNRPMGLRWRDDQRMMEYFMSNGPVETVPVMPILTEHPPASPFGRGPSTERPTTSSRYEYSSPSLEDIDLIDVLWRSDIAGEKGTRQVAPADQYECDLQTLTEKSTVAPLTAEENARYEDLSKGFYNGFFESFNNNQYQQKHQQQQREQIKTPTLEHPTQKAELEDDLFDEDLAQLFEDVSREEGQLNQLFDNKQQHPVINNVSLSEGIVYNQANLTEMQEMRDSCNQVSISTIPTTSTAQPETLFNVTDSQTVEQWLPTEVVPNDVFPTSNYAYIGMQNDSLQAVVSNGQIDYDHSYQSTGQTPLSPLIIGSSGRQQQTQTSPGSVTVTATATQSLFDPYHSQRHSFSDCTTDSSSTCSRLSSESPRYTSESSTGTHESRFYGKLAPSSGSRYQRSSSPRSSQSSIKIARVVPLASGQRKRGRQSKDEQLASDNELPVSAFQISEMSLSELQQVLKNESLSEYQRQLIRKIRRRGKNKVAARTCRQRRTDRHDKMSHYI

[5] = biological target: Procathepsin L (Homo sapiens, UniProt P07711)
Sequence of Procathepsin L (P07711 whole entry): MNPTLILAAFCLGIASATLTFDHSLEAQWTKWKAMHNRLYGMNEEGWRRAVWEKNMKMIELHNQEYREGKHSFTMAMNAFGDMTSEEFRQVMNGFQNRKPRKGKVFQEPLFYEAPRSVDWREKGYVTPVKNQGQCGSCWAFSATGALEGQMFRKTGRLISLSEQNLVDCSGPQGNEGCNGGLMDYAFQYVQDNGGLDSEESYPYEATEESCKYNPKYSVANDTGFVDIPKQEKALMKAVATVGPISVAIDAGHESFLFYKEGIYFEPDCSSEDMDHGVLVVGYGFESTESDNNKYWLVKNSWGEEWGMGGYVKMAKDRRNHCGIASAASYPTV

[6] = biological target: Ion channel NompC (Danio rerio, UniProt Q7T1G6); experiment: Fluorescence counterscreen assay for TRPML3 agonists: dose response cell-based high-throughput screening assay to identify agonists of the transient receptor potential channel N1 (TRPN1). [Related pubchem assays: 1526, 1424, 1448 ]; format: functional
Sequence of Ion channel NompC (Q7T1G6 whole entry): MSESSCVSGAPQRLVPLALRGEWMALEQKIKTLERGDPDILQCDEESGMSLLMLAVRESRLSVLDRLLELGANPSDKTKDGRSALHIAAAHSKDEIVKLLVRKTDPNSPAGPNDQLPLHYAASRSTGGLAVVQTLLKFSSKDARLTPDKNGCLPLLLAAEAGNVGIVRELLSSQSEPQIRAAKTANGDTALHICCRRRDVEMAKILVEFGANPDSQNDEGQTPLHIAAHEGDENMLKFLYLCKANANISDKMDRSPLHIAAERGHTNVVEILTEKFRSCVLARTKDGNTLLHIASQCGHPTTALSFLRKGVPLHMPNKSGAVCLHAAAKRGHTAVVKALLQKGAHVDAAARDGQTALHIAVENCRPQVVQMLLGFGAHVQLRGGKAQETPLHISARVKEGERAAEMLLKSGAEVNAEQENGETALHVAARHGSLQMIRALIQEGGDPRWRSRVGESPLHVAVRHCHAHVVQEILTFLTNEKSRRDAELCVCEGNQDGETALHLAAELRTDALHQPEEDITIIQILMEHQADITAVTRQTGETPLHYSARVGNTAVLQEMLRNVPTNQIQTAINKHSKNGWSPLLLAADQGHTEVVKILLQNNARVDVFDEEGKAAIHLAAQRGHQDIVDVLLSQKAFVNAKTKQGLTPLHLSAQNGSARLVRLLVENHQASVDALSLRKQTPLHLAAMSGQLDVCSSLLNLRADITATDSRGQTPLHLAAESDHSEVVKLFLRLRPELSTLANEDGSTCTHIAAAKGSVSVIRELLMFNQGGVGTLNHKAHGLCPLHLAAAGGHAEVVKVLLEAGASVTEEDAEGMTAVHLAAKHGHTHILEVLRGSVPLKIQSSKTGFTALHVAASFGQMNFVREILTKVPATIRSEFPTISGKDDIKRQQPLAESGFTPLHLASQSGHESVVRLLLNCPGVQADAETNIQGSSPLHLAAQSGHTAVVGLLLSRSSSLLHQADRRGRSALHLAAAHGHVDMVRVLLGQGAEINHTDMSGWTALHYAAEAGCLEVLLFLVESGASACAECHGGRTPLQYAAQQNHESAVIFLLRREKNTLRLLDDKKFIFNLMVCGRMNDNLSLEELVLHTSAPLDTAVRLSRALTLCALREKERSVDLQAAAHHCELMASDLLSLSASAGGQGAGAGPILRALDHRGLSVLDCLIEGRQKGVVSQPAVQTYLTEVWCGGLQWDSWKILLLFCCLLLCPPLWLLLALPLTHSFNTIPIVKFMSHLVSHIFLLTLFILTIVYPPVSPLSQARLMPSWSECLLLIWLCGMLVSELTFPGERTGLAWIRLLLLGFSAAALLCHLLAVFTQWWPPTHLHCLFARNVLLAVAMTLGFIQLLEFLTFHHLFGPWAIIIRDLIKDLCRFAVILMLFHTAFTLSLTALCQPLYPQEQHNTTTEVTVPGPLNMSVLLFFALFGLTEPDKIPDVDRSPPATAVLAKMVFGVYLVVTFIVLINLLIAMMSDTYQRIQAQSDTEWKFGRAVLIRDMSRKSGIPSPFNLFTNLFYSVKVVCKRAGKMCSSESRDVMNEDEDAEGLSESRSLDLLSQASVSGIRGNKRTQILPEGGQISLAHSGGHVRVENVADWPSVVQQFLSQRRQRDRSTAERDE

[7] = biological target: T5, Mucolipin-3 (Homo sapiens, UniProt Q8TDD5); experiment: Dose response cell-based high-throughput screening assay for agonists of the transient receptor potential channel ML3 (TRPML3). [Related pubchem assays: 1526, 1424, 1448 ]; format: functional
T5 sequence (Q8TDD5 whole entry): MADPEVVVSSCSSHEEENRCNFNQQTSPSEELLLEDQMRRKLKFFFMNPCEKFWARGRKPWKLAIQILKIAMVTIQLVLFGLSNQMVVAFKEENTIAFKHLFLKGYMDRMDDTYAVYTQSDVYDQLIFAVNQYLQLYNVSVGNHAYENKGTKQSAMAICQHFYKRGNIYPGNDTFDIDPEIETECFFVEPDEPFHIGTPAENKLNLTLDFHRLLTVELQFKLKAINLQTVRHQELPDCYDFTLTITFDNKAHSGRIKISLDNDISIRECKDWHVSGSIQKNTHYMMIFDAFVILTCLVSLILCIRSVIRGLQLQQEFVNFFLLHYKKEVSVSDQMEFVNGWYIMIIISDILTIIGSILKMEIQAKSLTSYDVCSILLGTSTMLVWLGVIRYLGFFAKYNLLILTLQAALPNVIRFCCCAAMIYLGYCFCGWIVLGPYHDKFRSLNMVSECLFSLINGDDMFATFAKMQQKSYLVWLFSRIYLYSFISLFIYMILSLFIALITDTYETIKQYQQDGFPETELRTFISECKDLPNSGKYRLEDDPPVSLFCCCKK

[8] = Luminescence Cell-Based Dose Response HTS to Identify Activators of Luciferase Translation or Activity in H4 […] Cells. [Related pubchem assays: 1829 (Project Summary), 1814 (Primary HTS)]; format: functional
[9] = biological target: T6, Acyl-homoserine lactone acylase PvdQ (Pseudomonas aeruginosa (strain LESB58), UniProt Q9I194); experiment: PvdQ acylase enzyme activity blockers – biochemical, fluorescence, plate reader and imaging, cherry-picks, dose response (AID 493231)
T6 sequence (Q9I194 whole entry): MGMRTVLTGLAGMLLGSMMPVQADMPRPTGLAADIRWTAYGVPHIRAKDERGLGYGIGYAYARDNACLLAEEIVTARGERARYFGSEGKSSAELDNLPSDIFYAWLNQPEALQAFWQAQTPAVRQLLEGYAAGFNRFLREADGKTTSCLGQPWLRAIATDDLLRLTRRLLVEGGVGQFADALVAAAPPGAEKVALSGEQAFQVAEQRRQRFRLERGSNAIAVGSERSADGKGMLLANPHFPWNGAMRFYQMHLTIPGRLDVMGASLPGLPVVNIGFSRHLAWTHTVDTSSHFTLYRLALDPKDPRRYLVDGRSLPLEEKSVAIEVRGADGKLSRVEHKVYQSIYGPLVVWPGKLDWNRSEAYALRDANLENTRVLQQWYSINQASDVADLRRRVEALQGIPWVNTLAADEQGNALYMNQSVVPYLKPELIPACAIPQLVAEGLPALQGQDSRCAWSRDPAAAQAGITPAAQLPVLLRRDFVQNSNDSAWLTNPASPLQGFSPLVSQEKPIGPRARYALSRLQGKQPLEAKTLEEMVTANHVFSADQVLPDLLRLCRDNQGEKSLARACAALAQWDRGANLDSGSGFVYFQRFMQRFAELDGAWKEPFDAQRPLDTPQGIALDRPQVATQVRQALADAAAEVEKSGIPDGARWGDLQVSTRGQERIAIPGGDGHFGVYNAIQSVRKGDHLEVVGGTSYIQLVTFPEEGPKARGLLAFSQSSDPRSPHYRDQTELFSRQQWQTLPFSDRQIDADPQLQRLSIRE

[10] = test system: H4; experiment: Luminescence Cell-Based Dose Response HTS to Identify Activators of 5'UTR Stem-Loop Driven Prion Protein mRNA Translation in H4 Neuroglioblastoma Cells. [Related pubchem assays: 1829 (Project Summary), 1814 (Primary HTS)]; format: functional; settings: Homo sapiens
[11] = Luminescence Cell-Based Dose Confirmation HTS to Identify Activators of 5'UTR Stem-Loop Driven Alpha-Synuclein mRNA Translation in H4 Neuroglioblastoma Cells. [Related pubchem assays: 1829 (Project Summary), 1814 (Primary HTS)]; format: functional
[12] = HEK-293T cell viability reduction – luminescence, B-cell screen hits, cytotoxicity control for BCR NF-kB inhibitor project, dose response (AID 489021); format: functional, cell-based;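 further: HEK-293T cells carrying an NF-kB luciferase reporter; cells exposed to compound for about 14 hours before viability readout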
[13] = Luminescence Cell-Based Dose Retest to Confirm Inhibitors of Cancer Stem Cells. [Related pubchem assays (depositor defined):AID2717, AID2721]; format: functional; settings: Homo sapiens

CC(/C=C1\SC(=S)N(NC(=O)c2ccc(C)cc2)C1=O)=C\c1ccccc1
IC50 [1]: 20.6 µM (not active) | IC50 [2]: > 35 µM (not active)

CCCCCCNS(=O)(=O)c1ccc(NC(=O)C2CCCO2)cc1 (stereo unspecified)
IC50 [1]: 7.94 µM (active) | IC50 [2]: 13.7 µM (not active)

O=C(/C=C/c1ccccc1)Nn1cnnc1
IC50 [3]: 1.76 µM (active) | IC50 [4]: > 100 µM (inactive) | IC50 [5]: > 59.6 µM (not active)

O=C(CNC(=O)c1ccccc1)NCCc1ccc(O)c(O)c1
IC50 [3]: 1.81 µM (active) | IC50 [5]: > 59.6 µM (not active)

Cc1ccc(S(=O)(=O)c2c(C)nn(C(C)(C)C)c2OC(=O)C2CCCC2)cc1
EC50 [6]: > 29.9 µM (not active) | EC50 [7]: > 29.9 µM (not active)

COc1ccc(S(=O)(=O)N2CCCCCC2)cc1N(C)S(=O)(=O)c1ccccc1
EC50 [6]: > 29.9 µM (not active) | EC50 [7]: 3.92 µM (active)

CCOC(=O)c1cc2c(s1)-c1c(C)cccc1OC2
EC50 [8]: 7.26 µM (active) | AC50 [9]: 0.443 µM (active) | EC50 [10]: 30.9 µM (active) | EC50 [11]: 39.8 µM (active)

COC(=O)c1ccc(NC(=S)N2CCCC2)cc1
AC50 [9]: 10.3 µM (active)

N=c1ccn(Cc2c(Cl)cccc2Cl)cc1
IC50 [12]: > 80 µM (inactive)

O=C(C=Cc1ccco1)c1cc(Cl)ccc1O
AC50 [9]: 21.6 µM (active)

COc1ccc(/C=N/NC(=O)CN(CCc2ccccc2)S(=O)(=O)c2ccc(NC(C)=O)cc2)cc1OC
IC50 [1]: 3.55 µM (active) | IC50 [2]: 10.4 µM (not active)

COc1cc(Br)cc(/C=N/c2nc[nH]n2)c1O
IC50 [3]: 2.35 µM (active) | IC50 [5]: > 59.6 µM (not active)

CCc1ccc2[nH]c3nc(N/N=C/c4cccc(O)c4)nnc3c2c1
IC50 [12]: > 80 µM (inactive) | AC50 [13]: < 0.16 µM (active)
